Experiment: solvent given as SMILES

COc1ccc2cc(C(C)C(=O)O)ccc2c1 (stereo not drawn)
solvation free energy, 298 K (in C1CCOC1): -75.1 kJ/mol
solvation free energy, 298 K (in C1COCCO1): -74.1 kJ/mol
solvation free energy, 298 K (in CC(C)CCO): -68.5 kJ/mol
solvation free energy, 298 K (in CC(C)CO): -68.1 kJ/mol
solvation free energy, 298 K (in CC(C)O): -69.6 kJ/mol
solvation free energy, 298 K (in CCC(C)O): -69.3 kJ/mol
solvation free energy, 298 K (in CCCC(C)O): -69 kJ/mol
solvation free energy, 298 K (in CCCCCCCCCCO): -67.9 kJ/mol
solvation free energy, 298 K (in CCCCCCCO): -69 kJ/mol
solvation free energy, 298 K (in CCCCCCO): -69 kJ/mol
solvation free energy, 298 K (in CCCCCO): -69.1 kJ/mol
solvation free energy, 298 K (in CCCCO): -69.3 kJ/mol
solvation free energy, 298 K (in CCCCOC(C)=O): -69.6 kJ/mol
solvation free energy, 298 K (in CCCO): -69.6 kJ/mol
solvation free energy, 298 K (in CCO): -69.7 kJ/mol
solvation free energy, 298 K (in CCOC(C)=O): -71.3 kJ/mol
solvation free energy, 298 K (in CCOCC): -69.8 kJ/mol
solvation free energy, 298 K (in CO): -70 kJ/mol
solvation free energy, 298 K (in COC(C)=O): -71.2 kJ/mol

O=C(O)CCc1ccccc1
solvation free energy, 298 K (in O): -37.7 kJ/mol

Clc1ccc(Cl)c(-c2cc(Cl)c(Cl)cc2Cl)c1
solvation free energy, 298 K (in CCCCCCCCO): -50.2 kJ/mol
solvation free energy, 298 K (in O): -11.8 kJ/mol

Nc1ccc([N+](=O)[O-])cc1
solvation free energy, 298 K (in CC(C)CC(C)(C)C): -33.9 kJ/mol
solvation free energy, 298 K (in CC(C)CO): -48.7 kJ/mol
solvation free energy, 298 K (in CCC(C)O): -49.7 kJ/mol
solvation free energy, 298 K (in CCCCOC(C)=O): -53 kJ/mol
solvation free energy, 298 K (in CCCCOCCCC): -46.5 kJ/mol
solvation free energy, 298 K (in COC(C)=O): -55.1 kJ/mol

Clc1ccc(-c2c(Cl)c(Cl)cc(Cl)c2Cl)cc1Cl
solvation free energy, 298 K (in O): -18.3 kJ/mol

OC1CCCCCCCCCCC1
solvation free energy, 298 K (in O): -22.4 kJ/mol

FC1(F)C(F)(F)C(F)(F)C1(F)F
solvation free energy, 298 K (in O): 14.4 kJ/mol

CC(=O)CCC(C)C
solvation free energy, 298 K (in NC=O): -18.9 kJ/mol

C1COCCO1
solvation free energy, 298 K (in Brc1ccccc1): -21.3 kJ/mol
solvation free energy, 298 K (in C1CCCCC1): -17.4 kJ/mol
solvation free energy, 298 K (in C1CCOC1): -21.4 kJ/mol
solvation free energy, 298 K (in CC1COC(=O)O1): -20.8 kJ/mol
solvation free energy, 298 K (in CC#N): -22.1 kJ/mol
solvation free energy, 298 K (in CC(=O)N(C)C): -20.8 kJ/mol
solvation free energy, 298 K (in CC(=O)O): -24.4 kJ/mol
solvation free energy, 298 K (in CC(=O)c1ccccc1): -21 kJ/mol
solvation free energy, 298 K (in CC(C)(C)Cl): -20 kJ/mol
solvation free energy, 298 K (in CC(C)(C)O): -20 kJ/mol
solvation free energy, 298 K (in CC(C)=O): -21.2 kJ/mol
solvation free energy, 298 K (in CC(C)CC(C)(C)C): -16.8 kJ/mol
solvation free energy, 298 K (in CC(C)CCCC(C)CCCC(C)CCCCC(C)CCCC(C)CCCC(C)C): -15.9 kJ/mol
solvation free energy, 298 K (in CC(C)CCO): -19 kJ/mol
solvation free energy, 298 K (in CC(C)O): -19 kJ/mol
solvation free energy, 298 K (in CC(C)OC(C)C): -18.4 kJ/mol
solvation free energy, 298 K (in CCBr): -21.8 kJ/mol
solvation free energy, 298 K (in CCC(C)=O): -21 kJ/mol
solvation free energy, 298 K (in CCC(C)Cl): -19.7 kJ/mol
solvation free energy, 298 K (in CCCC#N): -21 kJ/mol
solvation free energy, 298 K (in CCCCC): -16.8 kJ/mol
solvation free energy, 298 K (in CCCCCC): -17 kJ/mol
solvation free energy, 298 K (in CCCCCCC): -16.8 kJ/mol
solvation free energy, 298 K (in CCCCCCCCCC): -16.6 kJ/mol
solvation free energy, 298 K (in CCCCCCCCCCCCCCCC): -15.9 kJ/mol
solvation free energy, 298 K (in CCCCCl): -20.1 kJ/mol
solvation free energy, 298 K (in CCCCN): -20.6 kJ/mol
solvation free energy, 298 K (in CCCCN(C=O)CCCC): -19.2 kJ/mol
solvation free energy, 298 K (in CCCCO): -19.1 kJ/mol
solvation free energy, 298 K (in CCCCOCCCC): -18 kJ/mol
solvation free energy, 298 K (in CCCO): -18.9 kJ/mol
solvation free energy, 298 K (in CCN(CC)CC): -18.2 kJ/mol
solvation free energy, 298 K (in CCO): -19.6 kJ/mol
solvation free energy, 298 K (in CCOC(C)=O): -21 kJ/mol
solvation free energy, 298 K (in CCOCC): -19.3 kJ/mol
solvation free energy, 298 K (in CCOCCOCCOCC): -20 kJ/mol
solvation free energy, 298 K (in CCOP(=O)(OCC)OCC): -19.4 kJ/mol
solvation free energy, 298 K (in CCOc1ccccc1): -20.3 kJ/mol
solvation free energy, 298 K (in CN1CCCC1=O): -20.8 kJ/mol
solvation free energy, 298 K (in CN1CCN(C)C1=O): -19.3 kJ/mol
solvation free energy, 298 K (in CN(C)C=O): -21.2 kJ/mol
solvation free energy, 298 K (in CN(C)P(=O)(N(C)C)N(C)C): -20.2 kJ/mol
solvation free energy, 298 K (in CNC(C)=O): -19.5 kJ/mol
solvation free energy, 298 K (in CNC=O): -20.4 kJ/mol
solvation free energy, 298 K (in CO): -20.5 kJ/mol
solvation free energy, 298 K (in COCCO): -20.6 kJ/mol
solvation free energy, 298 K (in COc1ccccc1): -21.2 kJ/mol
solvation free energy, 298 K (in CS(C)=O): -20.3 kJ/mol
solvation free energy, 298 K (in Cc1ccc(C)cc1): -20.1 kJ/mol
solvation free energy, 298 K (in Cc1cccc(C)n1): -20.5 kJ/mol
solvation free energy, 298 K (in Cc1cccc(O)c1): -28.5 kJ/mol
solvation free energy, 298 K (in Cc1ccccc1): -20.5 kJ/mol
solvation free energy, 298 K (in Cc1ccccn1): -21 kJ/mol
solvation free energy, 298 K (in ClC(Cl)(Cl)Cl): -20.7 kJ/mol
solvation free energy, 298 K (in ClC(Cl)Cl): -25.6 kJ/mol
solvation free energy, 298 K (in Clc1ccccc1): -21.2 kJ/mol
solvation free energy, 298 K (in FC(F)(F)C(F)(F)C(F)(F)C(F)(F)C(F)(F)C(F)(F)F): -11.5 kJ/mol
solvation free energy, 298 K (in Fc1c(F)c(F)c(F)c(F)c1F): -20.6 kJ/mol
solvation free energy, 298 K (in Fc1ccccc1): -21.6 kJ/mol
solvation free energy, 298 K (in ICI): -20.5 kJ/mol
solvation free energy, 298 K (in Ic1ccccc1): -20.7 kJ/mol
solvation free energy, 298 K (in NC=O): -20.1 kJ/mol
solvation free energy, 298 K (in Nc1ccccc1): -23.6 kJ/mol
solvation free energy, 298 K (in O): -21.2 kJ/mol
solvation free energy, 298 K (in O=C1CCCCC1): -20.8 kJ/mol
solvation free energy, 298 K (in O=C1CCCO1): -21.2 kJ/mol
solvation free energy, 298 K (in O=CN1CCOCC1): -19.8 kJ/mol
solvation free energy, 298 K (in OCCO): -17.9 kJ/mol
solvation free energy, 298 K (in OCCOCCOCCO): -16.2 kJ/mol
solvation free energy, 298 K (in OCc1ccccc1): -22.7 kJ/mol
solvation free energy, 298 K (in S=C=S): -19.3 kJ/mol
solvation free energy, 298 K (in [2H]O[2H]): -21 kJ/mol
solvation free energy, 298 K (in c1ccc2ncccc2c1): -20.4 kJ/mol
solvation free energy, 298 K (in c1ccc(COCc2ccccc2)cc1): -20 kJ/mol
solvation free energy, 298 K (in c1ccccc1): -21.6 kJ/mol
solvation free energy, 298 K (in c1ccncc1): -21.6 kJ/mol

From the CombiSolv-Exp solvation set (Vermeire and Green 2021)
